ChEMBL document CHEMBL3217672, “Optimization of a series of dipeptides with a P3 -neopentyl asparagine residue as non-covalent inhibitors of the chymotrypsin-like activity of human 20S proteasome” (Medchemcomm, 2012)
Activity calls are given as the source filed them. The calls are words filed in the database; no cut-off is given here.

Assays:
[1] = biological target: T1, Proteasome Macropain subunit MB1 (Homo sapiens, UniProt P28074); test: Inhibition of 20S proteasome beta5 subunit in human erythrocytes using Ac-WLA-AMC as substrate by fluorescence assay; format: cell-based
T1 sequence (P28074 whole entry): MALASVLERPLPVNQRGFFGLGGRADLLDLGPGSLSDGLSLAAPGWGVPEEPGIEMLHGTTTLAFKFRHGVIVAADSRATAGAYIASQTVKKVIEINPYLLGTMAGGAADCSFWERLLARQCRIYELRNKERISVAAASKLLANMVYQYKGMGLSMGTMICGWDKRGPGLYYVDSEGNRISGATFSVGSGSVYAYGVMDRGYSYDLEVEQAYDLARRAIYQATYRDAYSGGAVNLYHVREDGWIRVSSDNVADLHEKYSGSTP

[2] = biological target: T1, Proteasome Macropain subunit MB1; test: Inhibition of 26S proteasome beta5 subunit in human Calu6 cells using Suc-LLVY-aminoluciferin as substrate after 1hr by luminescence assay; format: cell-based, Calu-6
[3] = Cytotoxicity against human Calu6 cells after 72 hrs by luminescence assay; format: functional; settings: Calu-6, 72 h, read-out: LC50 (the source's name)
[4] = biological target: Cathepsin B (Homo sapiens) (UniProt P07858); test: Inhibition of human purified cathepsin B at 100 uM
[5] = biological target: Procathepsin L (Homo sapiens) (UniProt P07711); test: Inhibition of human purified cathepsin L at 100 uM
Chain of Procathepsin L (Homo sapiens) (P07711 114-333 limits assumed): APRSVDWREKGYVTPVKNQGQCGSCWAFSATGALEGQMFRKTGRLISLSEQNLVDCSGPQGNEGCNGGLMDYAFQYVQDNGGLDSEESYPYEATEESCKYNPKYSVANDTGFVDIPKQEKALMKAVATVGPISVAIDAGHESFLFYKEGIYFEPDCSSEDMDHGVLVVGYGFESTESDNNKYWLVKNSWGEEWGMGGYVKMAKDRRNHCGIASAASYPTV

[6] = biological target: T2, Coagulation factor XII (Homo sapiens) (UniProt P00748); test: Inhibition of human purified coagulation factor 12a at 100 uM
T2 sequence (whole entry): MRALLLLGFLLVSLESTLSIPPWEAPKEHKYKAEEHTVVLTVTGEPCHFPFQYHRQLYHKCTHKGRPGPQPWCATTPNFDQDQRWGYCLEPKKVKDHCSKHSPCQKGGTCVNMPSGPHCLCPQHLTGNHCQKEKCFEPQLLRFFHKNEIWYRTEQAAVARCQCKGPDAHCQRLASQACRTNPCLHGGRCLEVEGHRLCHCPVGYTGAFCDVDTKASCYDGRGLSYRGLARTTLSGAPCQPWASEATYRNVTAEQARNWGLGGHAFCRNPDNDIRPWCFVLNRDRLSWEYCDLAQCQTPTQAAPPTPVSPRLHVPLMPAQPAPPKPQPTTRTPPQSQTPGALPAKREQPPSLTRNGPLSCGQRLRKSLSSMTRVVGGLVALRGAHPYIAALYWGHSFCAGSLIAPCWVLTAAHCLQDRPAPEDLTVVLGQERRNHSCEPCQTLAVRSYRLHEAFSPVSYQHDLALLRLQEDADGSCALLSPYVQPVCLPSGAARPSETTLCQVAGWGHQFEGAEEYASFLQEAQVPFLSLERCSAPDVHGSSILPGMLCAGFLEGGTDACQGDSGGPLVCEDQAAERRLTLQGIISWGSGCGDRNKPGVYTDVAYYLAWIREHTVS

Homo sapiens [7] = species on record: Homo sapiens; test: Inhibition of human purified chymotrypsin at 100 uM
Homo sapiens [8] = species on record: Homo sapiens; test: Inhibition of human purified elastase at 100 uM
[9] = biological target: Plasminogen (Homo sapiens) (UniProt P00747); test: Inhibition of human purified plasmin at 100 uM
Chain of Plasminogen (Homo sapiens) (P00747 97-580 limits assumed): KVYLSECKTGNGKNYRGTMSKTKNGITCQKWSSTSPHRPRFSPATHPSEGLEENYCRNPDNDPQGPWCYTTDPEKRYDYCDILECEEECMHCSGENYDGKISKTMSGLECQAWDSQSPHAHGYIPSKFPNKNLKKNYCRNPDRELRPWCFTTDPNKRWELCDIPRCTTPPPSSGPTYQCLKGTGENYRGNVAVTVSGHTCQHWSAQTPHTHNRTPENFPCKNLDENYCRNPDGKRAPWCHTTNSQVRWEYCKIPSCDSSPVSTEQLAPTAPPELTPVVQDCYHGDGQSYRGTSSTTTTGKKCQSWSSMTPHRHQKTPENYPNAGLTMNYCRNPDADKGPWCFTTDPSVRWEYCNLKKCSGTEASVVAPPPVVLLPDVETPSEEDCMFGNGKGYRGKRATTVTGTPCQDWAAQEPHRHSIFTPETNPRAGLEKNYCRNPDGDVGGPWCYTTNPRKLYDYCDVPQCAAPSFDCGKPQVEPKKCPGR
Chain of Plasminogen (Homo sapiens) (P00747 581-810 limits assumed): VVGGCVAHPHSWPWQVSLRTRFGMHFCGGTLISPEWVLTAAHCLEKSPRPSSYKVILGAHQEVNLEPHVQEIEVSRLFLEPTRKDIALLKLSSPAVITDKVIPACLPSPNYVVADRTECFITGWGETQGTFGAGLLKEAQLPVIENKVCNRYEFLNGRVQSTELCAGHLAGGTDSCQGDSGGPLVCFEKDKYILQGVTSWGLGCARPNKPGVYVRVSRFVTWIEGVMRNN

[10] = biological target: Prothrombin (Homo sapiens) (UniProt P00734); test: Inhibition of human purified thrombin at 100 uM
[11] = biological target: Tissue-type plasminogen activator (Homo sapiens) (UniProt P00750); test: Inhibition of human purified tissue-type plasminogen activator at 100 uM
Chain of Tissue-type plasminogen activator (Homo sapiens) (P00750 36-562 limits assumed): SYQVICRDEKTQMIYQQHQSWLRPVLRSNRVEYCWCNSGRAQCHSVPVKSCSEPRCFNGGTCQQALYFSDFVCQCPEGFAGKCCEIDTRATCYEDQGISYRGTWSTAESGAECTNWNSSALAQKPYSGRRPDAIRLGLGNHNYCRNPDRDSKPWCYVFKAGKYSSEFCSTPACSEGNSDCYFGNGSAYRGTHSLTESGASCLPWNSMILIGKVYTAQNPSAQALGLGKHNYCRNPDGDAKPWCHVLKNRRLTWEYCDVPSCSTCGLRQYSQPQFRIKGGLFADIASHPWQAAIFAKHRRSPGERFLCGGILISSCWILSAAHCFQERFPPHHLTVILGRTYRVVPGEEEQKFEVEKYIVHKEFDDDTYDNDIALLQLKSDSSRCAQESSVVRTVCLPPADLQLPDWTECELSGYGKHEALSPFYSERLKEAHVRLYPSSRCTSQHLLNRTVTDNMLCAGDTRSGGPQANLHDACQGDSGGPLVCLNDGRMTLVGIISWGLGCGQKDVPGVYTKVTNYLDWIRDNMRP

Trypsin (Homo sapiens) = Trypsin (Homo sapiens) (UniProt P07477+P07478+P35030); test: Inhibition of human purified trypsin at 100 uM; format: protein assay
[12] = biological target: T3, Calpain-1 catalytic subunit (Homo sapiens) (UniProt P07384); test: Inhibition of human purified calpain 1 at 100 uM
T3 sequence (whole entry): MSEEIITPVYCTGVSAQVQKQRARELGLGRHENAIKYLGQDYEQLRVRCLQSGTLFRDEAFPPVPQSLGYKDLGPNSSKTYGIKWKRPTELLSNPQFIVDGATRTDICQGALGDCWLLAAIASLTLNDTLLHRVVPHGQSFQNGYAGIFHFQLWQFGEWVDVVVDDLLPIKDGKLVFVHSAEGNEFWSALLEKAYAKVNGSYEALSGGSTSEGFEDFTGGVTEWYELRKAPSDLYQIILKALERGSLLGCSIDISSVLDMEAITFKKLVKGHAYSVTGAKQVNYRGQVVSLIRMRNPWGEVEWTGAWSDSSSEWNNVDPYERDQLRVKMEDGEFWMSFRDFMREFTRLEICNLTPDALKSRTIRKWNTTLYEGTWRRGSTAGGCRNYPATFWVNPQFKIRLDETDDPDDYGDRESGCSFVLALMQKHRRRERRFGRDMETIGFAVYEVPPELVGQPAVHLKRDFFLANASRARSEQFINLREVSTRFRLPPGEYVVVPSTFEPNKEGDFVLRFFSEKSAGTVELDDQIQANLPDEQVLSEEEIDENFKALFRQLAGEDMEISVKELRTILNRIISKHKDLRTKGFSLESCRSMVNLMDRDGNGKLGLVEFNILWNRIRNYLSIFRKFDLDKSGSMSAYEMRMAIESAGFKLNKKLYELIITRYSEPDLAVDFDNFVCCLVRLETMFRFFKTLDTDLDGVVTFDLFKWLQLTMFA

Row | Structure (SMILES) | IC50 [1] [µM] | CC50 [3] [µM] | further results
1 | Cc1ccc(CNC(=O)[C@H](CCc2ccccc2)NC(=O)[C@H](Cc2nc(C(C)(C)C)no2)NC(=O)C(=O)c2c[nH]c3ccccc23)cc1 | 0.0116 | 0.036 | IC50 [2]: 0.03 µM
2 | Cc1cc(C(=O)N[C@@H](CC(=O)NCC(C)(C)C)C(=O)N[C@@H](Cc2cccnc2)C(=O)NCc2ccccc2Cl)no1 | – | 0.17 | –
3 | Cc1ccc(CNC(=O)[C@H](CCc2ccccc2)NC(=O)[C@H](CNC(=O)CC(C)(C)C)NC(=O)C(=O)c2c[nH]c3ccccc23)cc1 | 0.91 | – | –
4 | CC(C)(C)CNC(=O)C[C@H](NC(=O)Cc1ccc(F)cc1)C(=O)N[C@@H](CCc1ccccc1)C(=O)NCc1ccccc1Cl | – | 0.094 | –
5 | CC(C)(C)CNC(=O)C[C@H](NC(=O)c1ccc(C(C)(C)C)cc1)C(=O)N[C@@H](CCc1ccccc1)C(=O)NCc1ccccc1 | – | 0.031 | –
6 | CC(C)(C)CNC(=O)C[C@H](NC(=O)C(=O)c1c[nH]c2ccccc12)C(=O)N[C@@H](Cc1ccncc1)C(=O)NCc1ccccc1Cl | – | 0.006 | –
7 | CC(C)(C)CNC(=O)C[C@H](NC(=O)C(=O)c1c[nH]c2ccccc12)C(=O)N[C@@H](CCc1ccccc1)C(=O)NCc1ccccc1Cl | – | 0.0024 | inhibition [4]: inactive; inhibition [5]: inactive; inhibition [6]: inactive; inhibition (Homo sapiens [7]): inactive; inhibition (Homo sapiens [8]): inactive; inhibition [9]: inactive; inhibition [10]: inactive; inhibition [11]: inactive; inhibition (Trypsin (Homo sapiens)): inactive; inhibition [12]: inactive
8 | CC(C)(C)CNC(=O)C[C@H](NC(=O)c1ccc(OCc2ccccc2)cc1)C(=O)N[C@@H](CCc1ccccc1)C(=O)NCc1ccccc1 | – | 0.01 | –
9 | CC(C)(C)CNC(=O)C[C@H](NC(=O)Cc1ccc(F)cc1)C(=O)N[C@@H](CCc1ccccc1)C(=O)NCc1ccccc1 | – | 0.12 | –
10 | Cc1cc(C(=O)N[C@@H](CC(=O)NCC(C)(C)C)C(=O)N[C@@H](Cc2ccncc2)C(=O)NCc2ccccc2Cl)no1 | – | 0.21 | –
11 | Cc1ccc(CNC(=O)[C@H](CCc2ccccc2)NC(=O)[C@H](Cc2nc(C(C)(C)C)no2)NC(=O)c2cc(C)on2)cc1 | 0.093 | 1.5 | IC50 [2]: 1.7 µM
12 | Cc1ccc(CNC(=O)[C@H](CCc2ccccc2)NC(=O)[C@H](CNC(=O)CC(C)(C)C)NC(=O)CCc2ccccc2)cc1 | > 1 | – | –
13 | CC(C)(C)CNC(=O)C[C@H](NC(=O)CN1CCCCC1)C(=O)N[C@@H](CCc1ccccc1)C(=O)NCc1ccccc1 | – | 0.18 | –
14 | Cc1cc(C(=O)N[C@@H](CC(=O)NCC(C)(C)C)C(=O)N[C@@H](C)C(=O)NCc2ccccc2Cl)no1 | – | 0.2 | –
15 | CC(=O)N[C@@H](CC(=O)NCC(C)(C)C)C(=O)N[C@@H](CCc1ccccc1)C(=O)NCc1ccccc1 | – | 0.89 | –
16 | Cc1ccc(CNC(=O)[C@H](CCc2ccccc2)NC(=O)[C@H](CCc2ccccc2)NC(=O)[C@H](CCc2ccccc2)NC(=O)c2cnc(C)cn2)cc1 | 0.016 | 0.13 | IC50 [2]: 0.053 µM

Row | Structure (SMILES) | IC50 [1] [µM] | CC50 [3] [µM] | further results
17 | CC(C)(C)CNC(=O)C[C@H](NC(=O)c1ccc(OCc2ccccc2)cc1)C(=O)N[C@@H](CCc1ccccc1)C(=O)NCc1ccccc1Cl | – | 0.0047 | –
18 | CC(C)(C)CNC(=O)C[C@H](NC(=O)CCc1ccccc1)C(=O)N[C@@H](CCc1ccccc1)C(=O)NCc1ccccc1Cl | – | 0.02 | –
19 | CC(C)(C)CNC(=O)C[C@H](NC(=O)CCc1ccccc1)C(=O)N[C@@H](CCc1ccccc1)C(=O)NCc1ccccc1 | – | 0.089 | –
20 | CCCNC(=O)C[C@H](NC(=O)c1cc(C)on1)C(=O)N[C@@H](CCc1ccccc1)C(=O)NCc1ccc(C)cc1 | 0.16 | – | –
21 | CC(C)(C)CNC(=O)C[C@H](NC(=O)CCc1ccccc1)C(=O)N[C@@H](CCc1ccccc1)C(=O)NCC1CC1 | 0.012 | 0.15 | IC50 [2]: 0.36 µM
22 | CC(C)C[C@H](NC(=O)[C@H](Cc1ccccc1)NC(=O)c1cnccn1)B(O)O [BORTEZOMIB] | – | 0.0052 | –
23 | CC(C)(C)CNC(=O)C[C@H](NC(=O)C(=O)c1c[nH]c2ccccc12)C(=O)N[C@@H](CCc1ccccc1)C(=O)NCc1ccccc1 | – | 0.0026 | –
24 | CC(C)(C)CNC(=O)C[C@H](NC(=O)C(C)(C)C)C(=O)N[C@@H](CCc1ccccc1)C(=O)NCc1ccccc1 | – | 0.21 | –
25 | Cc1cc(C(=O)N[C@@H](CC(=O)NCC(C)(C)C)C(=O)N[C@@H](Cc2ccc(Cl)cc2)C(=O)NCc2ccccc2Cl)no1 | 0.016 | 1.1 | –
26 | Cc1ccc(CNC(=O)[C@H](CCc2ccccc2)NC(=O)[C@H](CNC(=O)CC(C)(C)C)NC(=O)c2cc(C)on2)cc1 | > 1 | – | –
27 | Cc1cc(C(=O)N[C@@H](CC(=O)NCC(C)(C)C)C(=O)N[C@@H](CCc2ccccc2)C(=O)NCc2ccccc2)no1 | – | 0.027 | –
28 | Cc1cc(C(=O)N[C@@H](CC(=O)NCC(C)(C)C)C(=O)N[C@@H](CCc2ccccc2)C(=O)NCc2ccccc2Cl)no1 | – | 0.041 | inhibition [4]: inactive; inhibition [5]: inactive; inhibition [6]: inactive; inhibition (Homo sapiens [7]): inactive; inhibition (Homo sapiens [8]): inactive; inhibition [9]: inactive; inhibition [10]: inactive; inhibition [11]: inactive; inhibition (Trypsin (Homo sapiens)): inactive; inhibition [12]: inactive
29 | C[C@H](NC(=O)[C@H](CC(=O)NCC(C)(C)C)NC(=O)CCc1ccccc1)C(=O)NCc1ccccc1Cl | – | 0.039 | –
30 | CC(C)C[C@H](NC(=O)CNC(=O)c1cc(Cl)ccc1Cl)B(O)O [IXAZOMIB] | – | 0.014 | –
31 | CC(C)(C)CNC(=O)C[C@H](NC(=O)CCc1ccccc1)C(=O)N[C@@H](Cc1cccnc1)C(=O)NCc1ccccc1Cl | – | 0.061 | –
32 | Cc1ccc(CNC(=O)[C@H](CCc2ccccc2)NC(=O)[C@H](CC(=O)NCC(C)C)NC(=O)c2cc(C)on2)cc1 | 0.0073 | 0.25 | –
